Laboratory results taken from ChEMBL document CHEMBL1201862, “PubChem BioAssay data set” (2004).
The source made the active and inactive calls.

Experiments:
HEK293 = test: HEK293T cell cytotoxicity, dose response, cytotoxicity control, ATP luminescence, cherry-pick samples (AID 687005); format: functional, cell-based; conditions: Homo sapiens;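 further: cells exposed to compound for 48 hours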
[1] = HEK293 Cytotoxicity Assay Measured in Cell-Based System Using Plate Reader - 7071-01_Inhibitor_Dose_CherryPick_Activity_Set2.; format: functional
[2] = inhibitors of PGC1a acetylation in cells, dose response, cell-based, cherry-picked samples (AID 720514); format: functional;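 further: potency may reflect raised or lowered acetylation signal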
fMet-Leu-Phe receptor = fMet-Leu-Phe receptor (Homo sapiens, UniProt P21462); test: FPR ligands, dose response (AID 519); format: functional
[3] = miR-122 activators in hepatoma reporter cells, dose response, cell-based, Huh7 psiCHECK-miR122, Renilla luciferase, cherry-picked (AID 651956); format: functional;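 further: huh7 hepatoma cells stably carrying a psiCHECK-2 miR-122 sensor plasmid; renilla luciferase signal reporting endogenous miR-122 activity after 48 h compound exposure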
[4] = HEK293T cytotoxicity, dose response, cytotoxicity control for miR-122 modulator project, cell-based, inhibitor set, cherry-pick, set 2 (AID 720697); format: functional
[5] = target: T1, Oxysterols receptor LXR-beta (Homo sapiens, UniProt P55055); format: functional, cell-based;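 further: Cell-based luminescence dose-response assay of agonist activity at LXR, run as a confirmatory counterscreen to a daf-12 agonist screen; HEK293 cells with Gal4-LXR fusion and GAL4-driven luciferase reporter; agonist potency from rising luciferase signal of a Gal4-LXR reporter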
T1 sequence (P55055 whole entry): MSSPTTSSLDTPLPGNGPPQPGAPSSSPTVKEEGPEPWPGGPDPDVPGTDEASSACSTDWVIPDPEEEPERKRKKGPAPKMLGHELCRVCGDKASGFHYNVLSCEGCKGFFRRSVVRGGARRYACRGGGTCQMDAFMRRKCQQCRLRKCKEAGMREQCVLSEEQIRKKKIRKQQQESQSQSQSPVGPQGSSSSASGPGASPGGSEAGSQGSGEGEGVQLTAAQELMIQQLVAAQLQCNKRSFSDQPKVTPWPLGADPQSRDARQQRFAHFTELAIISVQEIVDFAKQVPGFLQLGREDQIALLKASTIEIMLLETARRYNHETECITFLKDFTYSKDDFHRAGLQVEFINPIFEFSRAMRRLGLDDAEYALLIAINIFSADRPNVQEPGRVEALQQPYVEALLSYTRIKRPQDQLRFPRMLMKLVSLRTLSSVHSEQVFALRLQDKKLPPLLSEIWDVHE

Chain of fMet-Leu-Phe receptor (P21462 whole entry): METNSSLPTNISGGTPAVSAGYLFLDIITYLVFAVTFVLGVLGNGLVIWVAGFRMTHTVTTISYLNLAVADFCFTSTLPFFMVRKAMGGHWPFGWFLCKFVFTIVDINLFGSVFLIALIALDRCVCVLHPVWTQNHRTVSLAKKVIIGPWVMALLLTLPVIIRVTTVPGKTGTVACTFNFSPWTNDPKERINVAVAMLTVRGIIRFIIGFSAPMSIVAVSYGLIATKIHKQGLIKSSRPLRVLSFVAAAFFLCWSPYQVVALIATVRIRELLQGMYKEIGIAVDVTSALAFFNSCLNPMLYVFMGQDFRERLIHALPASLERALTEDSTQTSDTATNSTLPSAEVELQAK

In the case of `Cc1ccc(S(=O)(=O)N[C@H]2C=C[C@@H](CC(=O)N3CCC(Cc4ccccc4)CC3)O[C@H]2CO)cc1`, the AC50 (HEK293) is reported as 14.2 µM (active) and the AC50 [1] is reported as 14.2 µM (active).
For `O=C(C(Br)=Cc1ccccc1)c1ccccc1`, the AC50 [2] was 10.9 µM (active).
With `CC(C)OC(=O)c1nnn(-c2nonc2N)c1CN1CCc2ccccc2C1` the Ki (fMet-Leu-Phe receptor) was 50 µM (inactive).
With `O=C(Nc1ccc(F)cc1)N1CCCCN2[C@H](CO)[C@@H](c3ccc(C#Cc4ccccc4)cc3)[C@H]2C1` the AC50 [3] was 10.5 µM (active), the AC50 [2] was 22.2 µM (active) and the AC50 [4] was 8.31 µM (active).
In the case of `Cc1nn(-c2ccc(Br)cc2)c(=O)c2ccccc12`, the EC50 (cells) is reported as > 67.6 µM (inactive) and the EC50 [5] is reported as > 67.6 µM (inactive).
